# US11661400B2, “NADPH oxidase inhibitors, pharmaceutical composition comprising the same, and application thereof” (TAIWANJ PHARMACEUTICALS CO., LTD., priority 2018, dated 2023)
# Experiments:
# [1] = biological target: T1, NOX1 (Homo sapiens, UniProt Q9Y5S8); test: NOX1 HT29 cell-based assay (luminol/HRP luminescence); details: HT-29, HT29 cells, DMSO = 0%, GKT137831 = 100%; for inhibition at 0.1 µM: 100 nM; for inhibition at 1 µM: 1000 nM
# T1 construct: endogenous in cells; host or cells: HT29
# T1 sequence (Q9Y5S8 1-564): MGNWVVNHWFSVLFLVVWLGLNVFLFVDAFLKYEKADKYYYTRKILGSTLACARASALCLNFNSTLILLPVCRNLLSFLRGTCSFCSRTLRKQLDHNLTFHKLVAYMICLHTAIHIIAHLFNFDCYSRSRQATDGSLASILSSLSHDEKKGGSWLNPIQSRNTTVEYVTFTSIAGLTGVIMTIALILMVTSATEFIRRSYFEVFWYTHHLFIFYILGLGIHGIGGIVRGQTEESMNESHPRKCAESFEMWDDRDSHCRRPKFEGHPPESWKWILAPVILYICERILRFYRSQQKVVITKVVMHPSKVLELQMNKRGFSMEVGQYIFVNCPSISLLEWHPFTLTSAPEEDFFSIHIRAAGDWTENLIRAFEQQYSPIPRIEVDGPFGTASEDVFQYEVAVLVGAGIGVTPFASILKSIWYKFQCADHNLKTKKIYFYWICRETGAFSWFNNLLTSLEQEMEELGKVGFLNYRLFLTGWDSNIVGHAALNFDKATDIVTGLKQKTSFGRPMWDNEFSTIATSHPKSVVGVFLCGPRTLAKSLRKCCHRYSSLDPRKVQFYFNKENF
# T1 sequence (P13498 2-195 partner limits assumed): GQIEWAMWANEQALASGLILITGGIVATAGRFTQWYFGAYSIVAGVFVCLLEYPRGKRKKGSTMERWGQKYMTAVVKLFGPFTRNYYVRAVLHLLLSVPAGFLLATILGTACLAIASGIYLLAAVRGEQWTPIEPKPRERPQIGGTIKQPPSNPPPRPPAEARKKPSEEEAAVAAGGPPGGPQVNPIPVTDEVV
# Experimental: NOX1 HT29 Cell-Based Assay:
# HT29 cells were cultured in T75 flask (Corning) and when 70-80% confluence was reached, cells were trypsinized, harvested in HBSS and counted. 1-2×10^5 cells were dispensed into individual wells in 70 μl final volume (96-well plates, white Corning). Cells were treated for 30-60 mins at 37° C. with 10 μl of GKT137831, DMSO and test compounds from their respective assay plates. This will correspond to a final concentration of 100 nM, 1000 nM GKT137831 or test compounds, and 0.1% DMSO. 20 μL of a mixture containing 100 μM luminol plus 0.4 units of HRP (final concentration) was added. Luminescence was quantified using a SpectraMax i3 Multiplate reader (Molecular Devices, Sunnyvale, Calif., USA). As designed, compounds that inhibit NOX1 activity will reduce cellular ROS production, leading to reduced probe-ROS interactions and reduced well luminescence. Compounds were tested in duplicate at a concentration of 100 nM and 1000 nM. DMSO and GKT137831 wells were applied as negative and positive controls, and the activities measured were set to 0% and 100%, respectively.
# [2] = biological target: T2, NOX2 (Homo sapiens, UniProt P04839); test: NOX2 HL60 cell-based assay (PMA oxidative burst, L012 chemiluminescence); details: DMSO-differentiated HL-60 cells, PMA-stimulated; for inhibition at 0.1 µM: HL-60, 100 nM; for inhibition at 1 µM: HL-60, 1000 nM
# T2 construct: HL-60 cells, rich in NOX2 expression; endogenous in cells; host or cells: DMSO-differentiated HL-60
# T2 sequence (P04839 2-570 limits assumed): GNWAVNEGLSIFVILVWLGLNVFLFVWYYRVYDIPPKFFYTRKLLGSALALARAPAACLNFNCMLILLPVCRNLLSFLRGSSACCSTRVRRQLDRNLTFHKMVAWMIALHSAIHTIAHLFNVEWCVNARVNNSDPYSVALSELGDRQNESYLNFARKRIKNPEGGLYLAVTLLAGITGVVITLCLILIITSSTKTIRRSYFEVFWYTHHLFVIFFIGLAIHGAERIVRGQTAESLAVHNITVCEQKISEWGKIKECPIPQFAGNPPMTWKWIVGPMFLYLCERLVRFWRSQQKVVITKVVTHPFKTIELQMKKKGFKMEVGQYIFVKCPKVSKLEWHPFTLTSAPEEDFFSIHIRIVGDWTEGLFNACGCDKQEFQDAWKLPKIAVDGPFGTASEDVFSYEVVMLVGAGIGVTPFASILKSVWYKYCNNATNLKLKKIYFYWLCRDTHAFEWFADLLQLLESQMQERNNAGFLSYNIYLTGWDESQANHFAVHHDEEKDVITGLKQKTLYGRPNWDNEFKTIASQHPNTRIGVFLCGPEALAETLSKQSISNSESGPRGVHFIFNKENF
# T2 sequence (P13498 2-195 partner limits assumed): T1 sequence (P13498 2-195 partner limits assumed)
# Experimental: NOX2 HL60 Cell-Based Assay:
# HL-60 cells, rich in NOX2 expression, was stimulated to undergo oxidative burst by phorbol myristate acetate (PMA). The ROS produced during this process was measured using the O2^−-specific chemiluminescent probe L012. L012 was added to DMSO-differentiated HL-60 cell suspensions to a final concentration of 100 μM. Then, 80 μL aliquots of cell suspension (2.5×10^5 cells) were transferred to individual wells of a 96-well plate. Test compounds were directly added to the wells at the specified concentrations. Following a 30-60 mins incubation at 37° C. in the dark, the oxidative burst was initiated by the addition of 10 ng/mL PMA, and the chemiluminescence signal was recorded every 5 min over a period of 60 mins in a SpectraMax i3 Multiplate reader (Molecular Devices, Sunnyvale, Calif., USA). • NOX4 HEK293 Overexpression Cell-Based Assay: […]
# [3] = biological target: T3, NOX4 (Homo sapiens, UniProt Q9NPH5); test: NOX4 HEK293 overexpression cell-based assay (Amplex Red H2O2); details: HEK293 cells stably overexpressing NOX4, DMSO = 0, GKT137831 = 100; for inhibition at 1 µM: HEK293, 1000 nM; for inhibition at 0.1 µM: HEK293, 100 nM
# T3 construct: expressed in transfected cells
# T3 sequence (Q9NPH5 1-578): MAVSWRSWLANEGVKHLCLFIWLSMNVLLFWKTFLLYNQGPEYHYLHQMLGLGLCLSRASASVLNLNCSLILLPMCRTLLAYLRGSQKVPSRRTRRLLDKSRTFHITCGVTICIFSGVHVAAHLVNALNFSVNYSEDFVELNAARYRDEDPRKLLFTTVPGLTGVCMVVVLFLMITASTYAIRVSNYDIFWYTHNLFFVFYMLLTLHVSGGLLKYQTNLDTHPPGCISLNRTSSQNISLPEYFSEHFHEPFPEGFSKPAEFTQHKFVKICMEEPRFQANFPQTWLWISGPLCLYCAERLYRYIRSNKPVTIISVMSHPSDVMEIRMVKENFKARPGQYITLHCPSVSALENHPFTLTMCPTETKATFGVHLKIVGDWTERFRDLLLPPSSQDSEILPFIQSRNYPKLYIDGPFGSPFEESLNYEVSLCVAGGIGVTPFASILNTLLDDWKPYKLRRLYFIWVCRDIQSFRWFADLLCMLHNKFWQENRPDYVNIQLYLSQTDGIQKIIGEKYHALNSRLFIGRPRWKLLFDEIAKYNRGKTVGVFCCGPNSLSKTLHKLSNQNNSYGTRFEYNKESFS
# T3 sequence (P13498 2-195 partner limits assumed): T1 sequence (P13498 2-195 partner limits assumed)
# Experimental: Extracellular H2O2 measurement using Amplex™ Red Hydrogen Peroxide/Peroxidase Assay Kit (Catalog number: A22188; Invitrogen, Carlsbad, Calif., USA) was used to detect extracellular H2O2 release by HEK293 cells stably overexpressing NOX4. NOX4 clonal cells in log-phase growth were trypsinized, washed, and dispersed thoroughly. Following trypsinization, the cells (3×10^4) were resuspended in 100 μL of 1× Krebs-Ringer phosphate glucose (KRPG) buffer containing various concentrations of GKT137831 or test compounds and incubated at 37° C. for 30 min. Cells were mixed with 100 μL of Amplex Red reagent solution containing 50 μM Amplex Red and 0.1 units/mL of HRP in KRPG buffer; each assay condition was evaluated induplicate. The samples were incubated at 37° C. for 90 mins in the dark, and then centrifuged at 2,500 g for 5 mins. The supernatants were loaded to a 96 well plate, and then measured using a SpectraMax i3 Multiplate reader (Molecular Devices, Sunnyvale, Calif., USA) at 530 nm excitation and 590 nm emission respectively. DMSO and GKT137831 wells were applied as negative and positive controls, and the activities measured were set to 0 and 100, respectively.
Structure (SMILES),inhibition at 0.1 µM [1],inhibition at 1 µM [1],inhibition at 0.1 µM [2],inhibition at 1 µM [2],% Inhibition NOX4 ([3]; 100 nM),inhibition at 1 µM [3],% Inhibition NOX2 ([2]; 100 nM),inhibition at 0.1 µM [3],"% Inhibition NOX2 ([2]; 100 nM, 0.1 µM)",% Inhibition NOX4 ([3]; 1000 nM),% Inhibition NOX2 ([2]; 1000 nM)
CCOc1ccccc1-c1[nH]c2cc(OC)c(OC)cc2c(=O)c1O [Compound 21],≥ 80%,≥ 80%,≤ 19%,50 to 79%,C (the percent of inhibition of NOX by the compounds ranges from 2000 to 49%),≥ 80%,,,,,
CCCOc1ccccc1-c1[nH]c2cc(OC)c(OC)cc2c(=O)c1O [Compound 22],≥ 80%,≥ 80%,,≥ 80%,C (the percent of inhibition of NOX by the compounds ranges from 2000 to 49%),≥ 80%,C (the percent of inhibition of NOX by the compounds ranges from 2000 to 49%),,,,
COc1cc2[nH]c(-c3ccccc3S(C)(=O)=O)c(O)c(=O)c2cc1OC [Compound 23],≥ 80%,≥ 80%,50 to 79%,≥ 80%,,50 to 79%,,50 to 79%,,,
COc1cc2[nH]c(-c3ccc(Cl)cc3Cl)c(O)c(=O)c2cc1OC [Compound 24],≥ 80%,≥ 80%,,≥ 80%,C (the percent of inhibition of NOX by the compounds ranges from 2000 to 49%),50 to 79%,,,C (the percent of inhibition of NOX by the compounds ranges from 2000 to 49%),,
COc1ccccc1-c1[nH]c2cccc(Br)c2c(=O)c1O [Compound 25],50 to 79%,≥ 80%,≤ 19%,50 to 79%,,,,≤ 19%,,C (the percent of inhibition of NOX by the compounds ranges from 2000 to 49%),
COc1ccccc1-c1[nH]c2cc3c(cc2c(=O)c1O)OCO3 [Compound 26],≥ 80%,≥ 80%,50 to 79%,≥ 80%,C (the percent of inhibition of NOX by the compounds ranges from 2000 to 49%),≥ 80%,,,,,
COc1cc(Br)c(-c2[nH]c3cc(OC)c(OC)cc3c(=O)c2O)c(OC)c1 [Compound 27],≥ 80%,≥ 80%,≤ 19%,≥ 80%,C (the percent of inhibition of NOX by the compounds ranges from 2000 to 49%),≥ 80%,,,,,
"COc1cc2[nH]c(-c3ccccc3[N+](=O)[O-])c(O)c(=O)c2cc1OC [Compound 29, 3-hydroxy-6,7-dimethoxy-2-(2-nitrophenyl) quinolin-4(1H)-one 2,2,2-trifluoroacetate]",≥ 80%,≥ 80%,,≥ 80%,,50 to 79%,C (the percent of inhibition of NOX by the compounds ranges from 2000 to 49%),50 to 79%,,,
"COc1cc2[nH]c(-c3ccccc3N)c(O)c(=O)c2cc1OC [Compound 30, 2-(2-aminophenyl)-3-hydroxy-6,7-dimethoxyquinolin-4(1H)-one]",≤ 19%,≥ 80%,50 to 79%,≥ 80%,,≤ 19%,,≤ 19%,,,
"COc1ccc(C(=O)COC(=O)c2ccc3c(=O)c(O)c(-c4ccc(OC)cc4)[nH]c3c2)cc1 [Compound 32, 2-(4-methoxyphenyl)-2-oxoethyl 3-hydroxy-2-(4-methoxyphenyl)-4-oxo-1,4-dihydroquinoline-7-carboxylate 2,2,2-trifluoroacetate]",≤ 19%,50 to 79%,,,,,C (the percent of inhibition of NOX by the compounds ranges from 2000 to 49%),≤ 19%,,C (the percent of inhibition of NOX by the compounds ranges from 2000 to 49%),C (the percent of inhibition of NOX by the compounds ranges from 2000 to 49%)
